Structures are written as SMILES.

This is an account of results in US20050209251A1, “Substituted pyrazolo-pyrimidine-4-ones” (priority 2002, published 2005).

The nature of data set [1]: logP determination by reversed-phase HPLC (EEC Directive 79/831 Annex V.A8), acidic range. Particulars: for chromatographic logP: pH 2, HPLC, C18 reversed-phase column, read-out: logP (pH 2). The format is physicochemical. The procedure:
The logP values given in the table were determined in accordance with EEC Directive 79/831 Annex V.A8 by HPLC (High Performance Liquid Chromatography) using a reversed-phase column (C 18). Temperature: 43° C.
(a) Mobile phases for the determination in the acidic range: 0.1% phosphoric acid, acetonitrile; linear gradient from 10% acetonitrile to 90% acetonitrile—the corresponding measurement results in Table 1 are marked a).
Calibration was carried out using unbranched alkan-2-ones (having 3 to 16 carbon atoms) with known logP values (determination of the logP values by the retention times using linear interpolation between two successive alkanones).

Data set [2] deals with weeds. Put plainly: Post-emergence test (herbicidal action). The format is in vivo. Particulars: test plants of 5-15 cm sprayed, rated after three weeks. The procedure:
Post-Emergence Test (Herbicidal Action)
(§1) To produce a suitable preparation of active compound, 1 part by weight of active compound is mixed with the stated amount of solvent, the stated amount of emulsifier is added and the concentrate is diluted with water to the desired concentration.
Test plants of a height of 5-15 cm are sprayed with the preparation of active compound such that the particular amounts of active compound desired are applied per unit area. The concentration of the spray liquor is chosen such that the particular amounts of active compound desired are applied in 1000 l of water/ha.
(§2) After three weeks, the degree of damage to the plants is rated in % damage in comparison to the development of the untreated control.

The test system of data set [3] is weeds. Put plainly: Pre-emergence test (herbicidal action). It counts as in vivo. To be noted: soil sprayed 24 hours after sowing, rated after three weeks. Here is the method: Pre-Emergence Test (Herbicidal Action)
as §1
Seeds of the test plants are sown in normal soil. After 24 hours, the soil is sprayed with the preparation of active compound such that the particular amount of active compound desired is applied per unit area. The concentration of active compound in the spray liquor is chosen such that the particular amount of active compound desired is applied in 1000 litres of water per hectare.
as §2

A further data set deals with Meloidogyne incognita. The data set can be described thus: Meloidogyne test (nematicidal action). To be noted: Meloidogyne incognita egg/larvae suspension, lettuce in sand. It counts as in vivo. Here is the method: Meloidogyne Test (Nematicidal Action)
To produce a suitable preparation of active compound, 1 part by weight of active compound is mixed with the stated amounts of solvent and emulsifier, and the concentrate is diluted with water to the desired concentration.
Vessels are filled with sand, solution of active compound, Meloidogyne incognita egg/larvae suspension and lettuce seeds. The lettuce seeds germinate and the plants develop. On the roots, galls are formed.
After the desired period of time, the nematicidal action is determined in % by the formation of galls. 100% means that no galls have been found; 0% means that the number of galls on treated plants corresponds to that of the untreated control.

By melting point is commonly meant the temperature, or range, at which the solid turns liquid. The compound `Cn1cnc2c(cnn2-c2ncc(C(F)(F)F)cc2Cl)c1=O` [Example 2, 1-(3-chloro-5-trifluoromethylpyridin-2-yl)-5-methyl-1,5-dihydropyrazolo[3,4-d]pyrimidin-4-one] had a melting point of 253 °C. Further, the chromatographic logP in data set [1] stood at 1.76.
In turn, `Cc1nc2c(cnn2-c2c(Cl)cc(C(F)(F)F)cc2Cl)c(=O)[nH]1` [Example 3, 1-(2,6-dichloro-4-trifluoromethylphenyl)-6-methyl-1,5-dihydropyrazolo[3,4-d]pyrimidin-4-one] had a melting point of 300 °C. In addition, in data set [1], the chromatographic logP was found to be 2.25.
Compound `Cc1nc2c(cnn2-c2c(Cl)cc(C(F)(F)F)cc2Cl)c(=O)n1C` [Example 4, 1-(2,6-dichloro-4-trifluoromethylphenyl)-5,6-dimethyl-1,5-dihydropyrazolo[3,4-d]pyrimidin-4-one] displayed a melting point of 195 °C. In addition, the chromatographic logP in data set [1] is 2.69.
In the case of `O=c1[nH]c(C2CC2)nc2c1cnn2-c1ncc(C(F)(F)F)cc1Cl` [Example 5, 1-(3-chloro-5-trifluoromethylpyridin-2-yl)-6-cyclopropyl-1,5-dihydropyrazolo[3,4-d]pyrimidin-4-one], the melting point turned out to be 239 °C. Further, the chromatographic logP in data set [1] amounted to 2.19.
The compound `O=c1[nH]c(C2(F)CC2)nc2c1cnn2-c1ncc(C(F)(F)F)cc1Cl` [Example 6, 6-(1-fluorocyclopropyl)-1-(3-chloro-5-trifluoromethylpyridin-2-yl)-1,5-dihydropyrazolo[3,4-d]pyrimidin-4-one] displayed a melting point of 211 °C. For the same compound, the chromatographic logP in data set [1] was found to be 2.29. Besides, the “herbicidal action against weeds (degree of damage)” value (from here on “herbicidal action against weeds”) in the data set on weeds [2] is “strong action against weeds”.
For the compound `CCc1nc2c(cnn2-c2ncc(C(F)(F)F)cc2Cl)c(=O)n1C` [Example 16], the “logP a) (Table 1, Physical data)” value in data set [1] is on record as “(I) logP = 2.46^a)”. In addition, the “herbicidal action against weeds” value in the data set with weeds [3] and with weeds [2] was “strong action against weeds” each time. In the data set with Meloidogyne incognita, the “nematicidal action (formation of galls)” value is “good activity”.
`Cn1c(C2CC2)nc2c(cnn2-c2ncc(Cl)cc2Cl)c1=O` [Example 80]: the “logP a) (Table 1, Physical data)” value in data set [1] is recorded as “(I) logP = 2.30^a)”. For the same compound, the “herbicidal action against weeds” value in the data set on weeds [3] and in the data set with weeds [2] was “strong action against weeds” in each case. Further, the “nematicidal action (formation of galls)” value in the data set on Meloidogyne incognita is given as “good activity”.
`NC(=O)c1cnn(-c2ncc(C(F)(F)F)cc2Cl)c1N` [II-1, 5-amino-1-(3-chloro-5-trifluoromethylpyridin-2-yl)pyrazole-4-carboxamide]: the melting point was 196 °C. Also, the chromatographic logP in data set [1] is 1.46.
Compound `NC(=O)c1cnn(-c2ncc(C(F)(F)F)cc2Cl)c1NC(=O)C1(F)CC1` [VI-1, 5-(1-fluorocyclopropylcarbonylamino)-1-(3-chloro-5-trifluoromethylpyridin-2-yl)pyrazole-4-carboxamide] showed a melting point of 204 °C. Further, the chromatographic logP in data set [1] amounted to 2.02.
